From patent publication US6790958B2, “Purine inhibitors of cyclin dependent kinase 2 & IKBA” (priority 1996, dated 2004)
≈ marks a conversion by molar mass, not a printed value.

Key:
CDK2 = CDK2 (Homo sapiens, UniProt P24941); test: CDK2 assay (histone H1 phosphorylation, 32P-ATP filter assay); format: biochemical; details: concentration required to inhibit CDK2 activity by 50%; histone H1, 30 μM ATP, 30° C., 30 min; read-out: IC50 (μg/mL) enzyme (converted)
Method: Compositions of this invention were assayed to determine their CDK2 inhibitory activity. The assay system (total volume of 50 μl) contained 50 mM Tris-Cl, pH 7.4, 10 mMgCl2, 5 mM DTT, 1 μg of histone H1, 30 μM ATP (1 μCi of gamma ^32P labeled ATP?), 10 μg of BSA and 1 μg of purified CDK2. After incubation at 30° C. for 30 min, the reaction was terminated by the addition of 10 μl of 10% TCA and the samples were blotted onto to nitrocellulose filters. These filters were washed extensively in 10% TCA and assayed for radioactivity. Blanks contained no enzyme. […] After incubation at 30 min., the assay tubes Were processed as above.

[1] = system: rat aortic smooth muscle cells; test: Cell proliferation assay, rat aortic smooth muscle cells (MTS); format: cell-based; details: concentration required to inhibit cell proliferation by 50%, 48 hr incubation, read-out: IC50 (μg/mL) cells
Method: (§1) Early passage rat aortic smooth muscle cells (CV Therapeutics Cell repository) were seeded in 48 well dishes (Falcon, […]) at a density of 20,000 cells/ml of DME containing 5% heat inactivated bovine serum. The cells were incubated in a standard tissue culture incubator for 48 hr. The medium was aspirated and the wells were replenished with 0.2 ml of fresh medium. Compounds of this invention were added at concentrations ranging from 100 to 0.37 μg/ml. After 48 hr incubation, the medium was aspirated and the cultures were treated with 0.2 ml of saline 0.25 μl of phenozine methosulfate solution containing MTS (Cell Titer 96® Aqueous Non-radioactive cell proliferation assay kit, Catalog # G 5430, Promega, 2800 Woods Hollow Road, Madison, Wis. 53711-5399).

[2] = system: PupVSMC rat neonatal aortic smooth muscle cells; test: Cell proliferation assay, PupVSMC; format: cell-based; details: Rat neonatal aortic smooth muscle cells, Table 9; the values are: IC50
Method: as §1
(§2) Similar assays were performed using the following cell lines; P388—mouse lymphoid neoplasm; L1210—mouse lympheytic leukemia; Caco2 human colon adenocarcinoma; MCF7 human breast adenocarcinoma; PupVSMC rat neonatal aortic smooth muscle cells; Ovcar human ovarian Carcinoma; Pancl human pancreatic adenocarcinoma; and HUVEC human umbilical cord endothelial cells.

[3] = system: P388 mouse lymphoid neoplasm; test: Cell proliferation assay, P388; format: cell-based; details: P388 cells
Method: as §1, §2

[4] = system: Pancl human pancreatic adenocarcinoma; test: Cell proliferation assay, Panc1; format: cell-based; details: Panc 1 cells
Method: as §1, §2

[5] = system: Ovcar human ovarian Carcinoma; test: Cell proliferation assay, OvCar; format: cell-based; details: OvCar cells
Method: as §1, §2

[6] = system: MCF7 human breast adenocarcinoma; test: Cell proliferation assay, MCF7; format: cell-based; details: Homo sapiens; MCF7 cells; read-out: IC50 (μg/ml) for Inhibition of Cell Proliferation, MCF7
Method: as §1, §2

[7] = system: Caco2 human colon adenocarcinoma; test: Cell proliferation assay, Caco2; format: cell-based; details: Homo sapiens, Caco-2; Caco2 cells; read-out: IC50 (μg/ml) for Inhibition of Cell Proliferation, Caco2
Method: as §1, §2

[8] = system: L1210 mouse lympheytic leukemia; test: Cell proliferation assay, L1210; format: cell-based; details: Mus musculus, L1210; L 120 cells; read-out: IC50 (μg/ml) for Inhibition of Cell Proliferation, L 120
Method: as §1, §2

Row | IC50 (CDK2) | Compound | other results
1 | 1090 nM | CC(C)n1cnc2c(Nc3cccc(-c4ccc(C#N)cc4)c3)nc(N(CCO)CCO)nc21 | 
2 | 1250 nM | COc1cccc(CNc2nc(N(CCO)CCO)nc3c2ncn3C(C)C)c1 | 
3 | 2710 nM | COc1cccc(CNc2nc(Cl)nc3c2ncn3C(C)C)c1 | 
4 | 248 nM | CSc1cccc(Nc2nc(N(CCO)CCO)nc3c2ncn3C(C)C)c1 | 
5 | 358 nM | CC(C)n1cnc2c(NCc3ccc(-c4ccccn4)cc3)nc(N(CCO)CCO)nc21 | 
6 | 1100 nM | CC(C)n1cnc2c(NCc3ccc(-c4cccs4)cc3)nc(N(CCO)CCO)nc21 | 
7 | 1300 nM | Cc1ccc(-c2ccc(CNc3nc(N(CCO)CCO)nc4c3ncn4C(C)C)cc2)cc1 | 
8 | 1170 nM | CC(C)n1cnc2c(NCc3ccc(-c4ccc(C(F)(F)F)cc4)cc3)nc(N(CCO)CCO)nc21 | 
9 | 2760 nM | FC(F)(F)n1cnc2c(NCc3ccc(Cl)cc3)nc(Cl)nc21 | 
10 | > 164000 nM | COc1ccc(CNc2nc(Cl)nc3c2ncn3CCCCl)cc1 | 
11 | > 168000 nM | COc1ccc(CNc2nc(Cl)nc3c2ncn3CCCC#N)cc1 | 
12 | 12200 nM | COc1ccc(CNc2nc(NCCO)nc3c2ncn3C)cc1 | IC50 [1]: 48 µg/mL (≈ 146 µM)
13 | > 158000 nM | COc1ccc(CNc2nc(Cl)nc3c2ncn3Cc2ccccc2)cc1 | IC50 [1]: > 70 µg/mL
14 |  | COc1ccc(CNc2nc(NC(CO)CO)nc3c2ncn3C(C)C)cc1 | IC50 [1]: 15 µg/mL (≈ 38.8 µM)
15 | 2520 nM | COc1ccc(CNc2nc(N3CCCC(O)C3)nc3c2ncn3C(C)C)cc1 (stereo not drawn) | 
16 | 1870 nM | COc1ccc(CNc2nc(N(CC(C)O)CC(C)O)nc3c2ncn3C(C)C)cc1 (stereo not drawn) | 
17 | 11200 nM | COc1ccc(CNc2nc(NCCO)nc3c2ncn3C(C)C)cc1 | IC50 [1]: 43 µg/mL (≈ 121 µM)
18 | 2240 nM | COc1ccc(CNc2nc(N(CCO)Cc3ccccc3)nc3c2ncn3C(C)C)cc1 | 
19 | > 98300 nM | COc1ccc(CNc2nc(Cl)nc3c2ncn3C(F)(C(F)(F)F)C(F)(F)F)cc1 | 

Row | IC50 (CDK2) | Compound | other results
20 | 76000 nM | COc1ccc(CNc2nc(N(CCO)CCO)nc3c2ncn3C(F)(C(F)(F)F)C(F)(F)F)cc1 | 
21 | 1390 nM | CC(C)n1cnc2c(Nc3ccc(-c4ccccc4)cc3)nc(N(CCO)CCO)nc21 | 
22 | 1390 nM | CC(C)n1cnc2c(NCc3ccc(-c4ccccc4)cc3)nc(NCC(O)CO)nc21 (stereo not drawn) | 
23 | 1800 nM | CSc1ccc(Nc2nc(Cl)nc3c2ncn3C(C)C)cc1 | 
24 | 174 nM | CSc1ccc(Nc2nc(N(CCO)CCO)nc3c2ncn3C(C)C)cc1 | 
25 | 85500 nM | CC(=O)C(C)n1cnc2c(NCc3ccc(Cl)cc3)nc(N(CCO)CCO)nc21 (stereo not drawn) | 
26 | 973 nM | CC(C)n1cnc2c(NCc3ccc(Cl)cc3)nc(NCCN)nc21 | 
27 | 2670 nM | CC(C)n1cnc2c(NCc3ccc(Cl)cc3)nc(NCCCN)nc21 | 
28 | 77100 nM | CC(C)n1cnc2c(NCc3ccc(Cl)cc3)nc(NCCCCCN)nc21 | 
29 | 296 nM | CC(C)n1cnc2c(NCc3ccc(Cl)cc3)nc(N(CCO)CCO)nc21 [listing 1 of 2 here] | 
30 | 472 nM | CC(C)[C@H](CO)Nc1nc(NCc2ccc(Cl)cc2)c2ncn(C(C)C)c2n1 | 
31 | 124 nM | CC(C)[C@@H](CO)Nc1nc(NCc2ccc(Cl)cc2)c2ncn(C(C)C)c2n1 | 
32 | 1150 nM | CC(C)n1cnc2c(NCc3ccc(Cl)cc3)nc(NC[C@@H](C)O)nc21 | 
33 | 934 nM | CC(C)n1cnc2c(NCc3ccc(Cl)cc3)nc(N[C@H](C)CO)nc21 | 
34 | 2380 nM | CC(C)n1cnc2c(NCc3ccc(Cl)cc3)nc(NC[C@@H](N)Cc3ccccc3)nc21 | 
35 | 694 nM | CC(C)n1cnc2c(NCc3ccc(Cl)cc3)nc(N[C@@H](C)CO)nc21 | 
36 | 2310 nM | CC(C)n1cnc2c(NCc3ccc(Cl)cc3)nc(N[C@@H](Cc3ccccc3)C(N)=O)nc21 | 
37 | 1010 nM | CC(C)n1cnc2c(NCc3ccc(Cl)cc3)nc(NC[C@H](C)O)nc21 | 
38 | 26400 nM | CC(=O)C(C)n1cnc2c(NCc3ccc(F)cc3)nc(N(CCO)CCO)nc21 (stereo not drawn) | 

Row | IC50 (CDK2) | Compound | other results
39 |  | CCC(CO)Nc1nc(NCc2ccc(F)cc2)c2ncn(C(C)C)c2n1 (stereo not drawn) | IC50 [1]: 2.4 µg/mL (≈ 6.44 µM)
40 |  | CC(C)n1cnc2c(NCc3ccc(F)cc3)nc(NCCN)nc21 | IC50 [1]: 1.4 µg/mL (≈ 4.08 µM)
41 | 1340 nM | CC(N)CNc1nc(NCc2ccc(F)cc2)c2ncn(C(C)C)c2n1 (stereo not drawn) | 
42 | 502 nM | CC(CO)Nc1nc(NCc2ccc(F)cc2)c2ncn(C(C)C)c2n1 (stereo not drawn) | 
43 | 492 nM | CC(C)[C@@H](CO)Nc1nc(NCc2ccc(F)cc2)c2ncn(C(C)C)c2n1 | 
44 | 1510 nM | CC(C)n1cnc2c(NCc3ccc(F)cc3)nc(NC[C@H]3CCCO3)nc21 | 
45 | 1640 nM | CC(C)n1cnc2c(NCc3ccc(F)cc3)nc(NC[C@@H]3CCCO3)nc21 | 
46 | 614 nM | CC(C)n1cnc2c(NCc3ccc(F)cc3)nc(NC[C@H](C)O)nc21 | 
47 | 3250 nM | CC(C)n1cnc2c(NCC3CCCCC3)nc(Cl)nc21 | 
48 | 1930 nM | CC(C)n1cnc2c(NCc3ccc4c(c3)OCO4)nc(N(CCO)CCO)nc21 | 
49 |  | CC(C)n1cnc2c(NCc3ccc(Cl)cc3)nc(N(CCO)CCO)nc21 [listing 2 of 2 here] | inhibitory activity, Pup VSMC [2]: 0.3 µg/mL
50 |  | COc1ccc(CNc2nc(N3CCOCC3)nc3c2ncn3C(C)C)cc1 | IC50 (μg/ml) for Inhibition of Cell Proliferation, P 388 [3]: >5 µg/mL; IC50 (μg/ml) for Inhibition of Cell Proliferation, Panc 1 [4]: 5.5 µg/mL; IC50 (μg/ml) for Inhibition of Cell Proliferation, OvCar [5]: 4.0 µg/mL
51 |  | CC(C)n1cnc2c(NCc3ccc(Cl)cc3)nc(N(CCN)CCO)nc21 [2-[(2-aminoethyl)(6-{[(4-chlorophenyl)methyl]amino}-9-(methylethyl)purin-2-yl)amino]ethan-1-ol] | inhibitory activity, Pup VSMC [2]: 0.3 µg/mL
52 |  | CC(C)n1cnc2c(NCc3ccc(-c4ccccc4)cc3)nc(N(CCO)CCO)nc21 [2-diethanolamino-6-(4-phenybenzylamino)-9-isopropyl Purine] | IC50 [6]: 1 µg/mL (≈ 2.24 µM); IC50 ([4]; Homo sapiens, read-out: IC50 (μg/ml) for Inhibition of Cell Proliferation, Panc 1): 1.3 µg/mL (≈ 2.91 µM); IC50 ([5]; Homo sapiens, read-out: IC50 (μg/ml) for Inhibition of Cell Proliferation, OvCar): 2 µg/mL (≈ 4.48 µM); IC50 [7]: 3.5 µg/mL (≈ 7.84 µM); IC50 [8]: 1 µg/mL (≈ 2.24 µM)
53 | 19800 nM | COc1ccc(CNc2nc(Cl)nc3c2ncn3C)cc1 [R1=4-methoxybenzylamino; R2=Me; R3=Cl] | IC50 [1]: > 70 µg/mL
54 | 3480 nM | CC(C)n1cnc2c(Nc3ccccc3)nc(Cl)nc21 [R1=anilino; R2=isopropyl; R3=Cl] | 
55 | > 211000 nM | OCCNc1nc(NCc2ccccc2)nc2[nH]cnc12 [R1=ethanolamino; R2=H; R3=Benzylamino] | 
56 | > 238000 nM | Cn1cnc2c(NCCO)nc(NCCO)nc21 [R1=ethanolamino; R2=Me; R3=Ethanolamino] | IC50 [1]: > 70 µg/mL
57 |  | CC(N)CNc1nc(NCc2ccc(Cl)cc2)c2ncn(C(C)C)c2n1 (stereo not drawn) [{2-[(2-aminopropyl)amino]-9-(methylethyl)purin-6-yl}[(4-chlorophenyl)methyl]amine] | inhibitory activity, Pup VSMC [2]: 0.1 µg/mL

Row | Compound | IC50 (CDK2) | other results
58 | COc1ccc(CNc2nc(N(CCO)CCO)nc3c2ncn3C)cc1 | 10700 nM | IC50 [1]: 48 µg/mL (≈ 129 µM)
59 | COc1ccc(CNc2nc(N(CCO)CCO)nc3c2ncn3CCO)cc1 | 1240 nM | IC50 [1]: 62 µg/mL (≈ 154 µM)
60 | COc1ccc(CNc2nc(NCC(O)CN)nc3c2ncn3C(C)C)cc1 (stereo not drawn) | 1560 nM | IC50 [1]: 25 µg/mL (≈ 64.9 µM)
61 | COc1ccc(CNc2nc(N3CC=CC3)nc3c2ncn3C(C)C)cc1 | 2740 nM | IC50 [1]: 12.5 µg/mL (≈ 34.3 µM)
62 | COc1ccc(CNc2nc(Cl)nc3c2ncn3C(C)C)cc1 | 12100 nM | IC50 [1]: 77 µg/mL (≈ 232 µM)
63 | CC(C)n1cnc2c(NCc3ccc(-c4ccccc4)cc3)nc(N(CCO)CCO)nc21 | 1340 nM | 
64 | CC(C)n1cnc2c(NCc3ccc(Cl)cc3)nc(NCC(O)c3ccccc3)nc21 (stereo not drawn) | 183 nM | IC50 [1]: > 5 µg/mL
65 | CC(C)n1cnc2c(NCc3ccc(F)cc3)nc(N(CCO)CCO)nc21 | 386 nM | IC50 [1]: 2.2 µg/mL (≈ 5.66 µM)
66 | CC(C)[C@H](CO)Nc1nc(NCc2ccc(F)cc2)c2ncn(C(C)C)c2n1 | 155 nM | IC50 [1]: 2.7 µg/mL (≈ 6.99 µM)
67 | CC(C)n1cnc2c(NCc3ccc(F)cc3)nc(NC[C@@H](C)O)nc21 | 642 nM | IC50 [1]: > 5 µg/mL
